Results published in patent US8957078B2, “Compounds useful as inhibitors of ATR kinase” (Vertex Pharmaceuticals Incorporated, priority 2013, dated 2015).

Tests used:
[1] = target: T1, ATR kinase (full-length ATR) (Homo sapiens, UniProt Q13535); assay: ATR Inhibition Assay (radioactive-phosphate incorporation); type: biochemical; conditions: Ki(app); 5 nM full-length ATR, 10 μM ATP, 800 μM target peptide, 25° C.
T1 construct: in the presence of 5 nM full-length ATR
Method: Compounds were screened for their ability to inhibit ATR kinase using a radioactive-phosphate incorporation assay. Assays were carried out in a mixture of 50 mM Tris/HCl (pH 7.5), 10 mM MgCl2 and 1 mM DTT. Final substrate concentrations were 10 μM [γ-33P]ATP (3 mCi 33P ATP/mmol ATP, Perkin Elmer) and 800 μM target peptide (ASELPASQPQPFSAKKK (SEQ. ID NO: 1)).
Assays were carried out at 25° C. in the presence of 5 nM full-length ATR. An assay stock buffer solution was prepared containing all of the reagents listed above, with the exception of ATP and the test compound of interest. 13.5 μL of the stock solution was placed in a 96 well plate followed by addition of 2 μL of DMSO stock containing serial dilutions of the test compound (typically starting from a final concentration of 15 μM with 3-fold serial dilutions) in duplicate (final DMSO concentration 7%). The plate was pre-incubated for 10 minutes at 25° C. and the reaction initiated by addition of 15 μL [γ-33P]ATP (final concentration 10 μM).
The reaction was stopped after […] by the addition of 30 μL 0.1M phosphoric acid containing 2 mM ATP. A multiscreen phosphocellulose filter 96-well plate (Millipore, Cat no. MAPHN0B50) was pretreated with 100 μL 0.2M phosphoric acid prior to the addition of 45 μL of the stopped assay mixture. The plate was washed with 5×200 μL 0.2M phosphoric acid. After drying, 100 μL Optiphase ‘SuperMix’ liquid scintillation cocktail (Perkin Elmer) was added to the well prior to scintillation counting (1450 Microbeta Liquid Scintillation Counter, Wallac).
After removing mean background values for all of the data points, Ki(app) data were calculated from non-linear regression analysis of the initial rate data using the Prism software package (GraphPad Prism version 3.0cx for Macintosh, GraphPad Software, San Diego Calif., USA).

[2] = tested on: HCT116 colorectal cancer cells; assay: Cisplatin Sensitization Assay (96 h cell viability MTS); type: cell-based; conditions: concentration of compound required to reduce the IC50 of Cisplatin alone by at least 3-fold; HCT116, 96 h MTS
Method: Compounds can be screened for their ability to sensitize HCT116 colorectal cancer cells to Cisplatin using a 96 h cell viability (MTS) assay. […] Compounds and Cisplatin are then both added simultaneously to the cell media in 2-fold serial dilutions from a top final concentration of 10 μM as a full matrix of concentrations in a final cell volume of 200 μl, and the cells are then incubated at 37° C. in 5% CO2. After 96 h, 40 μl of MTS reagent (Promega G358a) is added to each well and the cells are incubated for 1 h at 37° C. in 5% CO2. Finally, absorbance is measured at 490 nm using a SpectraMax Plus 384 reader (Molecular Devices) and the concentration of compound required to reduce the IC50 of Cisplatin alone by at least 3-fold (to 1 decimal place) can be reported.

T1 sequence (Q13535 whole entry): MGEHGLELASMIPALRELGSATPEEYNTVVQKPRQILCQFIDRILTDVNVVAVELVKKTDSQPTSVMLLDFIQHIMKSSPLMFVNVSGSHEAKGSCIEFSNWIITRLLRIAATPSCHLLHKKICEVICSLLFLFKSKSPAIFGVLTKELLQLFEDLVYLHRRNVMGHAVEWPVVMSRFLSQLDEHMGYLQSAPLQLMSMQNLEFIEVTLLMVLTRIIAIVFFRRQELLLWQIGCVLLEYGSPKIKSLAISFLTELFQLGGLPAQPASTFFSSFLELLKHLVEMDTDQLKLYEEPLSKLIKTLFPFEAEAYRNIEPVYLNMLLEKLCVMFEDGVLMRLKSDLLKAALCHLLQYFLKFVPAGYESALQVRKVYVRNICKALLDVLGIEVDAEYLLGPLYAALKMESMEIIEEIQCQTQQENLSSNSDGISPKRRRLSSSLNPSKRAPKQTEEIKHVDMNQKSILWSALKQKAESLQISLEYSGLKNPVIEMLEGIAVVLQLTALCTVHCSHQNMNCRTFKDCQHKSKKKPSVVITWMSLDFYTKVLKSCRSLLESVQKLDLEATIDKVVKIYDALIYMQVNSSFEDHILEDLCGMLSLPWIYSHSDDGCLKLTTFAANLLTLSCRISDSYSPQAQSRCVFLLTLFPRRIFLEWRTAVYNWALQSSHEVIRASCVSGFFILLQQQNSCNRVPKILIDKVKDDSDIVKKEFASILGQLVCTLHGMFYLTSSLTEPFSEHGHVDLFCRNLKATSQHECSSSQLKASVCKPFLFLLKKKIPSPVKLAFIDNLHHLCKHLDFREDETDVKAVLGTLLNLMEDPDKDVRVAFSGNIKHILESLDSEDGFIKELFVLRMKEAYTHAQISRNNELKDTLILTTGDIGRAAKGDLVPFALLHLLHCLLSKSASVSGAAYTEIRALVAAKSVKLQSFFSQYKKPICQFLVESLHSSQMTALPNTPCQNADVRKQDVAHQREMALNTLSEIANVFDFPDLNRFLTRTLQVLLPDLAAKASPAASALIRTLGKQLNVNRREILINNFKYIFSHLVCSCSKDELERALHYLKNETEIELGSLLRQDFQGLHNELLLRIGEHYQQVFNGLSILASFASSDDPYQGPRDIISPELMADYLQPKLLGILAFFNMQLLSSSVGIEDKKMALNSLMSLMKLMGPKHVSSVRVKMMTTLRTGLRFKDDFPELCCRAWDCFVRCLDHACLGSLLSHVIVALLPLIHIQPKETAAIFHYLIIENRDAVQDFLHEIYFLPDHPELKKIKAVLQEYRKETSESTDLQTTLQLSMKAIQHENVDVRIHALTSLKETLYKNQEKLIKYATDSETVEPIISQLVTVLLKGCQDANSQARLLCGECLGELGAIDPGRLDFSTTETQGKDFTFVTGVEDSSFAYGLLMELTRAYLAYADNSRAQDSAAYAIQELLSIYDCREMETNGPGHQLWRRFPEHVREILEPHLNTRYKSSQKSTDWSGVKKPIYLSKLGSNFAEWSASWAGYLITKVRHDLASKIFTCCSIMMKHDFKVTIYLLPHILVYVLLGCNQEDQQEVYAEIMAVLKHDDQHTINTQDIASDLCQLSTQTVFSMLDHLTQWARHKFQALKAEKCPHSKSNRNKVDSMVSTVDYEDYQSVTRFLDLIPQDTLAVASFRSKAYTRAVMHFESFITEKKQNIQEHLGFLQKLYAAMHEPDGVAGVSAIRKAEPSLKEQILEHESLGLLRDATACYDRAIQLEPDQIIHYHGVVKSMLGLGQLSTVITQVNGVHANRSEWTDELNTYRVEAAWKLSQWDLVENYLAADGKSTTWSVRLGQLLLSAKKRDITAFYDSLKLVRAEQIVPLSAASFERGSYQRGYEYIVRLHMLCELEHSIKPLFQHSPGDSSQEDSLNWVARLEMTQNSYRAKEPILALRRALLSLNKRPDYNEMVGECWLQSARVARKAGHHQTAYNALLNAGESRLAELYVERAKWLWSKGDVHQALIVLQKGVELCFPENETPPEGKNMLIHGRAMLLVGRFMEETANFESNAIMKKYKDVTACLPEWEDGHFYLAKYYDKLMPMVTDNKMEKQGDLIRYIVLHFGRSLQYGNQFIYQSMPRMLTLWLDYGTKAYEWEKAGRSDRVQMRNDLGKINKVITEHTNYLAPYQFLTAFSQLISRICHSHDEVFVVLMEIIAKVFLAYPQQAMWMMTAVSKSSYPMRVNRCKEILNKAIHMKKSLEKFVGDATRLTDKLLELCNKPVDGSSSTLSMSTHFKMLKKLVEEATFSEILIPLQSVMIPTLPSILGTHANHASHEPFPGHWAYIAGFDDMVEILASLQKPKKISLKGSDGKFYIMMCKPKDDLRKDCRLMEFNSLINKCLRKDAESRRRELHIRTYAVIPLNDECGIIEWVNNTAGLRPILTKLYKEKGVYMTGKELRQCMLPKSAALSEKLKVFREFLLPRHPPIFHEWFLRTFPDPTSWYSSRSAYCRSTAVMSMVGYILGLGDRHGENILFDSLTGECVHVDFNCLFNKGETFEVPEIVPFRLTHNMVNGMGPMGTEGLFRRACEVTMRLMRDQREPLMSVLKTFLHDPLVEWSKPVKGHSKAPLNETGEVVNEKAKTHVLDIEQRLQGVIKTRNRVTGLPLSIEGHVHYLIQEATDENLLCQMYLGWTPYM

Ki [1] [nM]	SMILES	Cisplatin Sensitization Assay [2]
10 to 1000	Nc1nn2cc(F)cnc2c1C(=O)Nc1ccncc1N1CCC(C(=O)N2CCC(N3CCCC3)CC2)CC1 [I-C-8, 2-amino-6-fluoro-N-(3-(4-(4-(pyrrolidin-1-yl)piperidine-1-carbonyl)piperidin-1-yl)pyridin-4-yl)pyrazolo[1,5-a]pyrimidine-3-carboxamide]	+++ (Compounds with a Cisplatin sensitization value of <0.02 μM are marked with “+++.”)
10 to 1000	Nc1nn2cc(F)cnc2c1C(=O)Nc1ccncc1N1CCC(C(=O)N2CCN(C3COC3)CC2)CC1 [I-C-9, 2-amino-6-fluoro-N-(3-(4-(4-(oxetan-3-yl)piperazine-1-carbonyl)piperidin-1-yl)pyridin-4-yl)pyrazolo[1,5-a]pyrimidine-3-carboxamide]	++ (Compounds with a Cisplatin sensitization value >0.02 μM but <0.2 μM are marked with “++.”)
< 10	CS(=O)(=O)C1CCN(c2cnccc2NC(=O)c2c(N)nn3cc(F)cnc23)CC1 [I-C-10, 2-amino-6-fluoro-N-(3-(4-(methylsulfonyl)piperidin-1-yl)pyridin-4-yl)pyrazolo[1,5-a]pyrimidine-3-carboxamide]	+++ (Compounds with a Cisplatin sensitization value of <0.02 μM are marked with “+++.”)
10 to 1000	Nc1nn2cc(F)cnc2c1C(=O)Nc1cncn1-c1ccccc1 [I-D-2, 2-amino-6-fluoro-N-(1-phenyl-1H-imidazol-5-yl)pyrazolo[1,5-a]pyrimidine-3-carboxamide]	+++ (Compounds with a Cisplatin sensitization value of <0.02 μM are marked with “+++.”)
10 to 1000	Nc1nn2cc(F)cnc2c1C(=O)Nc1cncn1C1CC1 [I-D-3, 2-amino-N-(1-cyclopropyl-1H-imidazol-5-yl)-6-fluoropyrazolo[1,5-a]pyrimidine-3-carboxamide]	+++ (Compounds with a Cisplatin sensitization value of <0.02 μM are marked with “+++.”)
< 10	Cc1nsc(NC(=O)c2c(N)nn3cc(F)cnc23)c1C1=CCOCC1 [I-E-4, 2-amino-N-(4-(3,6-dihydro-2H-pyran-4-yl)-3-methylisothiazol-5-yl)-6-fluoropyrazolo[1,5-a]pyrimidine-3-carboxamide]	+++ (Compounds with a Cisplatin sensitization value of <0.02 μM are marked with “+++.”)
10 to 1000	Cc1nsc(NC(=O)c2c(N)nn3cc(F)cnc23)c1-c1ccnn1C [I-E-8]	+++ (Compounds with a Cisplatin sensitization value of <0.02 μM are marked with “+++.”)

The next lines start with the compound.

SMILES	Ki [1] [nM]	Cisplatin Sensitization Assay [2]
Cc1ncccc1-c1cnccc1NC(=O)c1c(N)nn2cc(F)cnc12 [I-C-5, 2-amino-6-fluoro-N-(2′-methyl-[3,3′-bipyridin]-4-yl)pyrazolo[1,5-a]pyrimidine-3-carboxamide]	10 to 1000	++ (Compounds with a Cisplatin sensitization value >0.02 μM but <0.2 μM are marked with “++.”)
Cc1cnccc1-c1cnccc1NC(=O)c1c(N)nn2cc(F)cnc12 [I-C-6, 2-amino-6-fluoro-N-(3′-methyl-[3,4′-bipyridin]-4-yl)pyrazolo[1,5-a]pyrimidine-3-carboxamide]	10 to 1000	++ (Compounds with a Cisplatin sensitization value >0.02 μM but <0.2 μM are marked with “++.”)
Nc1nn2cc(F)cnc2c1C(=O)Nc1ccncc1N1CCC(C(=O)N2CCN3CCC2CC3)CC1 [I-C-7, N-(3-(4-(1,4-diazabicyclo[3.2.2]nonane-4-carbonyl)piperidin-1-yl)pyridin-4-yl)-2-amino-6-fluoropyrazolo[1,5-a]pyrimidine-3-carboxamide]	10 to 1000	+++ (Compounds with a Cisplatin sensitization value of <0.02 μM are marked with “+++.”)
Nc1nn2cc(F)cnc2c1C(=O)Nc1ccncc1N1CCCC1 [I-C-11, 2-amino-6-fluoro-N-(3-(pyrrolidin-1-yl)pyridin-4-yl)pyrazolo[1,5-a]pyrimidine-3-carboxamide]	10 to 1000	++ (Compounds with a Cisplatin sensitization value >0.02 μM but <0.2 μM are marked with “++.”)
N#CCc1cnc2c(C(=O)Nc3cncn3Cc3ccccc3)c(N)nn2c1 [I-D-1, 2-amino-N-(1-benzyl-1H-imidazol-5-yl)-6-(cyanomethyl)pyrazolo[1,5-a]pyrimidine-3-carboxamide]	< 10	+++ (Compounds with a Cisplatin sensitization value of <0.02 μM are marked with “+++.”)
Nc1nn2cc(F)cnc2c1C(=O)Nc1cncn1C1CCOCC1 [I-D-4, 2-amino-6-fluoro-N-(1-(tetrahydro-2H-pyran-4-yl)-1H-imidazol-5-yl)pyrazolo[1,5-a]pyrimidine-3-carboxamide]	10 to 1000	++ (Compounds with a Cisplatin sensitization value >0.02 μM but <0.2 μM are marked with “++.”)
Nc1nn2cc(F)cnc2c1C(=O)Nc1cncn1-c1cccnc1 [I-D-5, 2-amino-6-fluoro-N-(1-(pyridin-3-yl)-1H-imidazol-5-yl)pyrazolo[1,5-a]pyrimidine-3-carboxamide]	10 to 1000	++ (Compounds with a Cisplatin sensitization value >0.02 μM but <0.2 μM are marked with “++.”)
Cc1ncc(NC(=O)c2c(N)nn3cc(F)cnc23)n1-c1ccccc1 [I-D-6, 2-amino-6-fluoro-N-(2-methyl-1-phenyl-1H-imidazol-5-yl)pyrazolo[1,5-a]pyrimidine-3-carboxamide]	10 to 1000	+++ (Compounds with a Cisplatin sensitization value of <0.02 μM are marked with “+++.”)
Cc1ncccc1-c1c(C)nsc1NC(=O)c1c(N)nn2cc(F)cnc12 [I-E-1, 2-amino-6-fluoro-N-(3-methyl-4-(2-methylpyridin-3-yl)isothiazol-5-yl)pyrazolo[1,5-a]pyrimidine-3-carboxamide]	< 10	+++ (Compounds with a Cisplatin sensitization value of <0.02 μM are marked with “+++.”)
Cc1nsc(NC(=O)c2c(N)nn3cc(F)cnc23)c1C1CC1 [I-E-2, 2-amino-N-(4-cyclopropyl-3-methylisothiazol-5-yl)-6-fluoropyrazolo[1,5-a]pyrimidine-3-carboxamide]	10 to 1000	+++ (Compounds with a Cisplatin sensitization value of <0.02 μM are marked with “+++.”)
Cc1nsc(NC(=O)c2c(N)nn3cc(F)cnc23)c1-c1cccnc1 [I-E-3, 2-amino-6-fluoro-N-(3-methyl-4-(pyridin-3-yl)isothiazol-5-yl)pyrazolo[1,5-a]pyrimidine-3-carboxamide]	10 to 1000	+++ (Compounds with a Cisplatin sensitization value of <0.02 μM are marked with “+++.”)
Cc1nsc(NC(=O)c2c(N)nn3cc(F)cnc23)c1C1=CCN(C)CC1 [I-E-5, 2-amino-6-fluoro-N-(3-methyl-4-(1-methyl-1,2,3,6-tetrahydropyridin-4-yl)isothiazol-5-yl)pyrazolo[1,5-a]pyrimidine-3-carboxamide]	10 to 1000	+++ (Compounds with a Cisplatin sensitization value of <0.02 μM are marked with “+++.”)
Cc1nsc(NC(=O)c2c(N)nn3cc(F)cnc23)c1-c1cncn1C [I-E-6, 2-amino-6-fluoro-N-(3-methyl-4-(1-methyl-1H-imidazol-5-yl)isothiazol-5-yl)pyrazolo[1,5-a]pyrimidine-3-carboxamide]	10 to 1000	+++ (Compounds with a Cisplatin sensitization value of <0.02 μM are marked with “+++.”)
Cc1nsc(NC(=O)c2c(N)nn3cc(F)cnc23)c1-c1ccccc1 [I-E-7, 2-amino-6-fluoro-N-(3-methyl-4-phenylisothiazol-5-yl)pyrazolo[1,5-a]pyrimidine-3-carboxamide]	< 10	+++ (Compounds with a Cisplatin sensitization value of <0.02 μM are marked with “+++.”)
CC(=O)N1CC=C(c2c(C)nsc2NC(=O)c2c(N)nn3cc(F)cnc23)CC1 [I-E-9, N-(4-(1-acetyl-1,2,3,6-tetrahydropyridin-4-yl)-3-methylisothiazol-5-yl)-2-amino-6-fluoropyrazolo[1,5-a]pyrimidine-3-carboxamide]	10 to 1000	+++ (Compounds with a Cisplatin sensitization value of <0.02 μM are marked with “+++.”)
